Laboratory results reported in patent US5075287A, “Muramyl peptide derivatives and immunoregulating compositions containing them” (priority 1989, dated 1991).
Where two headings read alike, the source gives them in different places.

How the values were obtained:
[1] = system: influenza HA vaccine (B/Nagasaki/1/87 strain); type: in vivo, female CDF1 mice
[2] = system: L-1210 mouse leukemia cells; experiment: Activation of macrophages (growth inhibition of tumor cells by intraperitoneal macrophages of treated mice, MTT assay); type: cell-based; details: macrophages taken 3 days after i.p. 0.2 ml of 500 μg/ml, macrophage:L-1210 20:1, 72 hours
Description: A compound of the present invention was dissolved in lipidmicrosphere to obtain a solution in a concentration of 500μg/ml, and 0.2 ml of such solution was intraperitoneally administered to each mouse in one group consisting of seven female CDF1 mice. Intraperitoneal macrophages obtained three days after the administration and L-1210 mouse leukemia cells were mixed in the ratio of cell numbers of 20:1, respectively. Two hundred μl of the mixture was placed in each well of one sheet of 96 well microtiter plate. After 72 hours, the increase of the cell number in each well was determined by a MTT assay method. The ratio of the cell number for the mixture of the L-1210 cells and the macrophage relative to the cell number for the L-1210 cells only(growth inhibitory ratio) was determined, and the results are shown in Table 3.

[3] = system: hepatitis B virus surface antigen (HBs); experiment: Hepatitis-vaccine enhancing activity (adjuvant activity): anti-HBs IgG in mouse serum by ELISA; type: in vivo, female CDF1 mice
Description: A compound of the present invention was dissolved in lipidmicrosphere (1 mg/ml). On the other hand, a solution of hepatitis B virus surface antigen (HBs) in physiological saline was prepared (50 μg/ml). The above solutions in equal amounts were mixed to prepare a test solution. A control solution was prepared by the exclusion of the compound of the present invention from said test solution. A mixture of a suspension of aluminium hydroxide gel in physiological saline (1 mg/ml) and said hepatitis vaccine preparation in equal amounts was prepared as another control solution. The test solution (0.2 ml) was intraperitoneally administered to each mouse in one group consisting of seven female CDF1 mice.
Blood samples were collected from the fundus ocluli vein of each mouse every week after the administration and then centrifuged to obtain serums. Three weeks after the administration, 0.2 ml of the test liquid was intraperitoneally administered again to each mouse for secondary stimulation. Then blood collecting was conducted every week to obtain serums after the application of the secondary stimulation, in the same manner as that described above.
The amount of the IgG antibodies against the hepatitis B virus surface antigens (HBs) in the serums thus obtained was determined with an ELISA method.

[4] = Experiment 1, 1 W after i.p. administration, 5000-fold dilution, compound in lipidmicrosphere + HA vaccine
[5] = Experiment 1, 2 W, 5000-fold dilution
[6] = Experiment 1, 3 W, 5000-fold dilution
[7] = Experiment 1, 4 W (after secondary stimulation at 3 weeks), 5000-fold dilution
[8] = Experiment 1, 5 W (after secondary stimulation at 3 weeks), 5000-fold dilution
[9] = Experiment 1, 1 W after i.p. administration, 5000-fold dilution, compound in lipidmicrosphere + HBs
[10] = Experiment 2, 1 W, 8000-fold dilution
[11] = Experiment 2, 2 W, 8000-fold dilution
[12] = Experiment 2, 3 W, 8000-fold dilution
[13] = Experiment 2, 4 W (after secondary stimulation at 3 weeks), 8000-fold dilution
[14] = Experiment 2, 5 W (after secondary stimulation at 3 weeks), 8000-fold dilution
[15] = Experiment 2, 1 W, 2000-fold dilution
[16] = Experiment 2, 2 W, 2000-fold dilution
[17] = Experiment 2, 3 W, 2000-fold dilution
[18] = Experiment 2, 4 W (after secondary stimulation at 3 weeks), 2000-fold dilution
[19] = Experiment 2, 5 W (after secondary stimulation at 3 weeks), 2000-fold dilution

Compound | Anti HA serum antigen value (average value ± S.D.) [1, 10] | Anti HA serum antigen value (average value ± S.D.) [1, 11] | Anti HA serum antigen value (average value ± S.D.) [1, 12] | Anti HA serum antigen value (average value ± S.D.) [1, 13] | Anti HA serum antigen value (average value ± S.D.) [1, 14] | Anti-HBs IgG antibody level in serum (ELISA absorbance at 415 nm) [3, 15] | Anti-HBs IgG antibody level in serum (ELISA absorbance at 415 nm) [3, 16] | Anti-HBs IgG antibody level in serum (ELISA absorbance at 415 nm) [3, 17] | Anti-HBs IgG antibody level in serum (ELISA absorbance at 415 nm) [3, 18] | Anti-HBs IgG antibody level in serum (ELISA absorbance at 415 nm) [3, 19] | further results
CCCCCCCCCCCCCCC(CCCCCCCCCCCCCC)C(=O)S[C@@H]1O[C@H](COC(=O)CCCCCCCCCCCCC)[C@@H](O)[C@H](O[C@H](C)C(=O)N[C@@H](C)C(=O)N[C@H](CCC(=O)OC)C(N)=O)[C@H]1NC(C)=O [Example 9, N-[2-0-{2-Acetamido-2,3-dideoxy-6-0-tetradecanoyl-1-S-(2-tetradcylhexadecanoyl)-1-thio-β-D-glucopyranos-3-yl}-D-lactoyl]-L-alanyl-D-isoglutamine methylester] |  |  |  |  |  |  |  |  |  |  | Anti HA serum antigen value (average value ± S.D.) [1, 4]: 0.019 ± 0.002 O.D 415 nm; Anti HA serum antigen value (average value ± S.D.) [1, 5]: 0.168 ± 0.005 O.D 415 nm; Anti HA serum antigen value (average value ± S.D.) [1, 6]: 0.392 ± 0.006 O.D 415 nm; Anti HA serum antigen value (average value ± S.D.) [1, 7]: 1.342 ± 0.005 O.D 415 nm; Anti HA serum antigen value (average value ± S.D.) [1, 8]: 1.329 ± 0.026 O.D 415 nm; Growth inhibitory ratio of L-1210 mouse leukemia cells [2]: 58.5%; Anti-HBs IgG antibody level in serum (ELISA absorbance at 415 nm) [3, 9]: 0.014 ± 0.002 O.D 415 nm; Anti-HBs IgG antibody level in serum (ELISA absorbance at 415 nm) [3, 5]: 0.092 ± 0.003 O.D 415 nm; Anti-HBs IgG antibody level in serum (ELISA absorbance at 415 nm) [3, 6]: 0.149 ± 0.001 O.D 415 nm; Anti-HBs IgG antibody level in serum (ELISA absorbance at 415 nm) [3, 7]: 0.681 ± 0.012 O.D 415 nm; Anti-HBs IgG antibody level in serum (ELISA absorbance at 415 nm) [3, 8]: 0.702 ± 0.006 O.D 415 nm
CCCCCCCCCCCCCCC(CCCCCCCCCCCCCC)C(=O)S[C@@H]1O[C@H](CO)[C@@H](O)[C@H](O[C@H](C)C(=O)N[C@@H](C)C(=O)N[C@H](CCC(=O)OC)C(N)=O)[C@H]1NC(C)=O [Example 2] |  |  |  |  |  |  |  |  |  |  | Anti HA serum antigen value (average value ± S.D.) [1, 4]: 0.003 ± 0.001 O.D 415 nm; Anti HA serum antigen value (average value ± S.D.) [1, 5]: 0.172 ± 0.004 O.D 415 nm; Anti HA serum antigen value (average value ± S.D.) [1, 6]: 0.420 ± 0.005 O.D 415 nm; Anti HA serum antigen value (average value ± S.D.) [1, 7]: 0.447 ± 0.029 O.D 415 nm; Anti HA serum antigen value (average value ± S.D.) [1, 8]: 1.418 ± 0.035 O.D 415 nm; Growth inhibitory ratio of L-1210 mouse leukemia cells [2]: 41.3%; Anti-HBs IgG antibody level in serum (ELISA absorbance at 415 nm) [3, 9]: 0 O.D 415 nm; Anti-HBs IgG antibody level in serum (ELISA absorbance at 415 nm) [3, 5]: 0.023 ± 0.000 O.D 415 nm; Anti-HBs IgG antibody level in serum (ELISA absorbance at 415 nm) [3, 6]: 0.076 ± 0.001 O.D 415 nm; Anti-HBs IgG antibody level in serum (ELISA absorbance at 415 nm) [3, 7]: 0.975 ± 0.008 O.D 415 nm; Anti-HBs IgG antibody level in serum (ELISA absorbance at 415 nm) [3, 8]: 0.930 ± 0.004 O.D 415 nm
CCCCCCCCCCCCCCCCCC(=O)OC[C@H]1O[C@H](OC(=O)C[C@@H](CCCCCCCCCCC)OC(=O)CCCCCCCCCCCCC)[C@H](NC(C)=O)[C@@H](O[C@H](C)C(=O)N[C@@H](C)C(=O)N[C@H](CCC(=O)OC)C(N)=O)[C@@H]1O [Example 26, N-[2-0-{2-Acetamido-2,3-dideoxy-6-0-octadecanoyl-1-0-((3R)-3-tetradecanoyloxytetradecanoyl)-α-D-glucopyranos-3-yl}-D-lactoyl]-L-alanyl-D-isogluatmine methylester] | 0.004 ± 0.003 O.D 415 nm | 0.038 ± 0.001 O.D 415 nm | 0.054 ± 0.001 O.D 415 nm | 0.208 ± 0.001 O.D 415 nm | 0.206 ± 0.002 O.D 415 nm | 0.001 ± 0.006 O.D 415 nm | 0.015 ± 0.006 O.D 415 nm | 0.032 ± 0.008 O.D 415 nm | 0.192 ± 0.002 O.D 415 nm | 0.163 ± 0.004 O.D 415 nm | 
CCCCCCCCCCCCCCCC(=O)O[C@H](CCCCCCCCCCC)CC(=O)O[C@H]1O[C@H](CO)[C@@H](O)[C@H](O[C@H](C)C(=O)N[C@@H](C)C(=O)N[C@H](CCC(=O)OC)C(N)=O)[C@H]1NC(C)=O [Example 17, N-[2-0-{2-Acetamido-2,3-dideoxy-1-0-((3R)-3-hexadecanoyloxytetradecanoyl)-α-D-glucopyranos-3-yl}-D-lactoyl]-L-alanyl-D-isoglutamine methylester] | 0.010 ± 0.002 O.D 415 nm | 0.122 ± 0.006 O.D 415 nm | 0.191 ± 0.001 O.D 415 nm | 0.611 ± 0.017 O.D 415 nm | 0.696 ± 0.014 O.D 415 nm | 0.001 ± 0.004 O.D 415 nm | 0.026 ± 0.001 O.D 415 nm | 0.051 ± 0.001 O.D 415 nm | 0.642 ± 0.021 O.D 415 nm | 0.615 ± 0.021 O.D 415 nm | 
CCCCCCCCCCCCCCCCCCCCCCCC(=O)O[C@H](CCCCCCCCCCC)CC(=O)S[C@@H]1O[C@H](COC(=O)CCCCCCCCCCCCCCCCC)[C@@H](O)[C@H](O[C@H](C)C(=O)N[C@@H](C)C(=O)N[C@H](CCC(=O)OC)C(N)=O)[C@H]1NC(C)=O [Example 28, N-[2-0-{2-Acetamido-2,3-dideoxy-6-0-octadecanoyl-1-S-((3R}-3-tetracosanoyloxytetradecanoyl)-1-thio-β-D-glucopyranos-3-Yl}-D-lactoyl]-L-alanyl-D-isoglutamine methylester] | 0.008 ± 0.004 O.D 415 nm | 0.041 ± 0.004 O.D 415 nm | 0.061 ± 0.001 O.D 415 nm | 0.787 ± 0.018 O.D 415 nm | 0.779 ± 0.024 O.D 415 nm | 0.005 ± 0.003 O.D 415 nm | 0.062 ± 0.004 O.D 415 nm | 0.086 ± 0.004 O.D 415 nm | 0.611 ± 0.018 O.D 415 nm | 0.543 ± 0.029 O.D 415 nm | 
CCCCCCCCCCCCCCCC(=O)O[C@H](CCCCCCCCCCC)CC(=O)S[C@@H]1O[C@H](CO)[C@@H](O)[C@H](O[C@H](C)C(=O)N[C@@H](C)C(=O)N[C@H](CCC(=O)OC)C(N)=O)[C@H]1NC(C)=O [Example 19] | 0 O.D 415 nm | 0.125 ± 0.003 O.D 415 nm | 0.187 ± 0.001 O.D 415 nm | 0.872 ± 0.002 O.D 415 nm | 0.936 ± 0.006 O.D 415 nm | 0 O.D 415 nm | 0.023 ± 0.000 O.D 415 nm | 0.042 ± 0.001 O.D 415 nm | 0.536 ± 0.011 O.D 415 nm | 0.521 ± 0.012 O.D 415 nm | 
CCCCCCCCCCCCCCCCCC(=O)OC[C@H]1O[C@H](OC(=O)C[C@@H](CCCCCCCCCCC)OC(=O)CCCCCCCCCCCCCCCCC)[C@H](NC(C)=O)[C@@H](O[C@H](C)C(=O)N[C@@H](C)C(=O)N[C@H](CCC(=O)OC)C(N)=O)[C@@H]1O [Example 22] | 0.001 ± 0.004 O.D 415 nm | 0.065 ± 0.001 O.D 415 nm | 0.100 ± 0.003 O.D 415 nm | 0.411 ± 0.009 O.D 415 nm | 0.492 ± 0.002 O.D 415 nm | 0.005 ± 0.004 O.D 415 nm | 0.036 ± 0.007 O.D 415 nm | 0.053 ± 0.001 O.D 415 nm | 0.294 ± 0.006 O.D 415 nm | 0.254 ± 0.002 O.D 415 nm | 
